Data on twelve compounds can be found in patent US7038106B1, “Detection of neural activity” (The University Court of the University of Glasgow, priority 1998, dated 2006).

Assay [1] deals with mushroom bodies (Kenyon cells) of Drosophila adult brain. Briefly: Aequorin luminometry of endogenous intracellular calcium oscillation in intact Drosophila brain (GAL4-aeq lines). The conditions noted are these: for Effect on oscillation amplitude and period/frequency: concentration not given; for pEC50: Drosophila melanogaster, read-out: EC50 for reduction of oscillation amplitude. It is filed as cell-based. Background: A change in cytosolic calcium serves as a functional read-out for many receptors and channels.

Assay [2] concerns Honeybee KCs calcium current. To be noted: cited from earlier work.
In assay [3] the test system is Honeybee KCs delayed rectifier-type current. To be noted: cited from earlier work.

pEC50: −log10 of the molar value. Entries after “also recorded” stand apart in the source; their conditions may differ. Like-named read-outs stand apart in the source and are kept apart here.

For `NC1=N[C@H](O)[C@H]2[C@H]3O[C@]4(O)O[C@@H]([C@@H](O)[C@@]2(N1)[C@@H]4O)[C@]3(O)CO` [Tetrodotoxin], the Effect on oscillation entry in assay [1] is “cessation of oscillation within a few cycles of application; also recorded: oscillation resumes in the form of a series of spaced bursts of very high relative amplitude”.

On to Picrotoxin [Pierotoxin], for which the “Effect on oscillation amplitude and period/frequency” value in assay [1] is “opposite effects”.

Consider `O=C(O)CN(CCOCCOCCN(CC(=O)O)CC(=O)O)CC(=O)O` [EGTA], for which the Effect on oscillation entry in assay [1] (1 mM, removal of external calcium) is given as “Oscillation ceases”.

For the compound `CN1CCCC1c1cccnc1` (stereo not shown) [Nicotine], the Effect on oscillation result in assay [1] is given as “complete abolition of oscillation”.

Take `[Co]` [Cobalt]: the Effect on oscillation entry in assay [1] (1–10 mM range) was “gradual dampening effect on oscillation”.

For the compound `COc1ccc(CCN(C)CCCC(C#N)(c2ccc(OC)c(OC)c2)C(C)C)cc1OC` (stereo not shown) [Verapamil], the “Effect on calcium current” value in assay [2] is given as “affected”.

`CCCC(=O)Nc1ncnc2c1ncn2[C@@H]1O[C@@H]2COP(=O)(O)O[C@H]2[C@H]1OC(=O)CCC` [dibutyryl cAMP]: in assay [1] (1 mM, cAMP pathway), the Effect on oscillation entry was “ineffective”.

`NCCCC(=O)O` [GABA]: the “Effect on oscillation amplitude and period” value in assay [1] (1 mM) was “increases both amplitude and period”. Further, in assay [1], the “Effect on oscillation amplitude and period/frequency” value was “increases both amplitude and period”.

Turning to `C=C[C@H]1C[N@@]2CC[C@H]1C[C@@H]2[C@@H](O)c1ccnc2ccc(OC)cc12` [Quinidine], in assay [3] (100 μM), the “Effect on delayed rectifier-type current” value was “blocked”.

The term pEC50 denotes the negative decadic logarithm of the EC50, by convention in mol/L. In the case of `Nc1ccncc1` [4-aminopyridine], the “Sensitivity of oscillation in Sh5 background relative to Sh+ control (less sensitive)” value in assay [1] is 10 fold. Also, the pEC50 in assay [1] (dose-response curves from amplitudes measured before and after treatment, […]) was roughly 4.52. Moreover, the “Effect on oscillation frequency / period” value in assay [1] (concentration not stated or dose-dependent) is reported as “dose-dependent reduction of oscillation period”. In assay [1] (concentration not stated or dose-dependent, […]), the “Effect on oscillation amplitude” value is “reduce oscillation amplitude in a dose-dependent manner”.

With `Nc1c2c(nc3ccccc13)CCCC2` [Tacrine], the pEC50 in assay [1] (dose-response curves from amplitudes measured before and after treatment, 117Y-aeq adult brains) was roughly 6.00. Besides, in assay [1], the “Effect on oscillation amplitude and period/frequency” value is “reduce both oscillation amplitude and frequency”.

For the compound `CC(=O)[O-].CC[N+](CC)(CC)CC` [TEA, tetraethylammonium acetate], in assay [1], the Effect on oscillation result is “eliminate oscillations” and the pEC50 is roughly 4.15. The “Sensitivity of delayed rectifier-type current” value in assay [3] is on record as “only weakly sensitive”.
